Measurements taken from the NIST ThermoML archive (doi:10.1021/je200073x).
± gives the expanded uncertainty stated by the source.

Columns and labels:
[1] = 101.33 kPa, Liquid; for viscosity: Concentric cylinders viscometry; for electrical conductivity: Metler Toledo SevenEasy conductivity meter; for mass density: Vibrating tube method
[2] = molar heat capacity at constant pressure; conditions: 101.33 kPa, Liquid, Small sample (50 mg) DSC

With `CCCCCC[n+]1ccn(C)c1.FC(F)(F)C(F)(F)[P-](F)(F)(F)(C(F)(F)C(F)(F)F)C(F)(F)C(F)(F)F` the viscosity ([1]; 293.15 K) was 114.3 ± 2.8 mPa·s, the electrical conductivity ([1]; 293.15 K) was 0.1303 ± 0.0013 S/m and the mass density ([1]; 293.15 K) was 1555.6 ± 0.7 kg/m3. For the same molecule, the viscosity ([1]; 298.15 K) was 88.2 ± 2.1 mPa·s, the electrical conductivity ([1]; 298.15 K) was 0.167 ± 0.0017 S/m and the mass density ([1]; 298.15 K) was 1550.1 ± 0.7 kg/m3. The viscosity ([1]; 303.15 K) was 68.4 ± 1.6 mPa·s, the electrical conductivity ([1]; 303.15 K) was 0.209 ± 0.002 S/m and the mass density ([1]; 303.15 K) was 1544.7 ± 0.7 kg/m3. For the same molecule, the viscosity ([1]; 308.15 K) was 54.1 ± 1.2 mPa·s, the electrical conductivity ([1]; 308.15 K) was 0.258 ± 0.003 S/m and the mass density ([1]; 308.15 K) was 1539.3 ± 0.7 kg/m3. It also gave a viscosity ([1]; 313.15 K) of 43.2 ± 1 mPa·s, an electrical conductivity ([1]; 313.15 K) of 0.313 ± 0.003 S/m and a mass density ([1]; 313.15 K) of 1533.9 ± 0.7 kg/m3. For the same molecule, the viscosity ([1]; 318.15 K) was 35.1 ± 0.8 mPa·s, the electrical conductivity ([1]; 318.15 K) was 0.374 ± 0.004 S/m and the mass density ([1]; 318.15 K) was 1528.7 ± 0.7 kg/m3. It also gave a viscosity ([1]; 323.15 K) of 28.9 ± 0.6 mPa·s, an electrical conductivity ([1]; 323.15 K) of 0.44 ± 0.01 S/m and a mass density ([1]; 323.15 K) of 1523.5 ± 0.7 kg/m3. For the same molecule, the viscosity ([1]; 328.15 K) was 24.4 ± 0.5 mPa·s, the electrical conductivity ([1]; 328.15 K) was 0.514 ± 0.005 S/m and the mass density ([1]; 328.15 K) was 1518 ± 1 kg/m3. It also gave a viscosity ([1]; 333.15 K) of 20.3 ± 0.4 mPa·s, an electrical conductivity ([1]; 333.15 K) of 0.593 ± 0.006 S/m and a mass density ([1]; 333.15 K) of 1512.6 ± 0.7 kg/m3. For the same molecule, the viscosity ([1]; 338.15 K) was 17.3 ± 0.4 mPa·s, the electrical conductivity ([1]; 338.15 K) was 0.676 ± 0.007 S/m and the mass density ([1]; 338.15 K) was 1507.2 ± 0.7 kg/m3. For the same molecule, the viscosity ([1]; 343.15 K) was 14.8 ± 0.3 mPa·s, the electrical conductivity ([1]; 343.15 K) was 0.769 ± 0.008 S/m and the mass density ([1]; 343.15 K) was 1501.8 ± 0.7 kg/m3. The “molar heat capacity at constant pressure” value ([2]; 293.15 K) was 725.56 ± 24 J/K/mol, the “molar heat capacity at constant pressure” value ([2]; 294.15 K) was 726.17 ± 24 J/K/mol and the “molar heat capacity at constant pressure” value ([2]; 295.15 K) was 726.78 ± 24 J/K/mol. The “molar heat capacity at constant pressure” value ([2]; 296.15 K) was 728.01 ± 24 J/K/mol, the “molar heat capacity at constant pressure” value ([2]; 297.15 K) was 728.62 ± 24 J/K/mol and the “molar heat capacity at constant pressure” value ([2]; 298.15 K) was 729.85 ± 24 J/K/mol. For the same molecule, the “molar heat capacity at constant pressure” value ([2]; 299.15 K) was 730.46 ± 24 J/K/mol, the “molar heat capacity at constant pressure” value ([2]; 300.15 K) was 731.68 ± 24 J/K/mol and the “molar heat capacity at constant pressure” value ([2]; 301.15 K) was 732.29 ± 24 J/K/mol. The “molar heat capacity at constant pressure” value ([2]; 302.15 K) was 733.52 ± 24 J/K/mol, the “molar heat capacity at constant pressure” value ([2]; 303.15 K) was 734.13 ± 24 J/K/mol and the “molar heat capacity at constant pressure” value ([2]; 304.15 K) was 735.36 ± 24 J/K/mol. The “molar heat capacity at constant pressure” value ([2]; 305.15 K) was 735.97 ± 24 J/K/mol, the “molar heat capacity at constant pressure” value ([2]; 306.15 K) was 737.19 ± 24 J/K/mol and the “molar heat capacity at constant pressure” value ([2]; 307.15 K) was 737.81 ± 24 J/K/mol. For the same molecule, the “molar heat capacity at constant pressure” value ([2]; 308.15 K) was 738.42 ± 24 J/K/mol, the “molar heat capacity at constant pressure” value ([2]; 309.15 K) was 739.64 ± 25 J/K/mol and the “molar heat capacity at constant pressure” value ([2]; 310.15 K) was 740.25 ± 25 J/K/mol. For the same molecule, the “molar heat capacity at constant pressure” value ([2]; 311.15 K) was 741.48 ± 25 J/K/mol, the “molar heat capacity at constant pressure” value ([2]; 312.15 K) was 742.09 ± 25 J/K/mol and the “molar heat capacity at constant pressure” value ([2]; 313.15 K) was 743.32 ± 25 J/K/mol. For the same molecule, the “molar heat capacity at constant pressure” value ([2]; 314.15 K) was 743.93 ± 25 J/K/mol, the “molar heat capacity at constant pressure” value ([2]; 315.15 K) was 745.15 ± 25 J/K/mol and the “molar heat capacity at constant pressure” value ([2]; 316.15 K) was 745.77 ± 25 J/K/mol. The “molar heat capacity at constant pressure” value ([2]; 317.15 K) was 746.99 ± 25 J/K/mol, the “molar heat capacity at constant pressure” value ([2]; 318.15 K) was 747.6 ± 25 J/K/mol and the “molar heat capacity at constant pressure” value ([2]; 319.15 K) was 748.83 ± 25 J/K/mol. For the same molecule, the “molar heat capacity at constant pressure” value ([2]; 320.15 K) was 749.44 ± 25 J/K/mol, the “molar heat capacity at constant pressure” value ([2]; 321.15 K) was 750.05 ± 25 J/K/mol and the “molar heat capacity at constant pressure” value ([2]; 322.15 K) was 751.28 ± 25 J/K/mol. The “molar heat capacity at constant pressure” value ([2]; 323.15 K) was 751.89 ± 25 J/K/mol, the “molar heat capacity at constant pressure” value ([2]; 324.15 K) was 752.5 ± 25 J/K/mol and the “molar heat capacity at constant pressure” value ([2]; 325.15 K) was 753.11 ± 25 J/K/mol. For the same molecule, the “molar heat capacity at constant pressure” value ([2]; 326.15 K) was 754.34 ± 25 J/K/mol, the “molar heat capacity at constant pressure” value ([2]; 327.15 K) was 754.95 ± 25 J/K/mol and the “molar heat capacity at constant pressure” value ([2]; 328.15 K) was 756.17 ± 25 J/K/mol. For the same molecule, the “molar heat capacity at constant pressure” value ([2]; 329.15 K) was 756.79 ± 25 J/K/mol, the “molar heat capacity at constant pressure” value ([2]; 330.15 K) was 758.01 ± 25 J/K/mol and the “molar heat capacity at constant pressure” value ([2]; 331.15 K) was 758.62 ± 25 J/K/mol. For the same molecule, the “molar heat capacity at constant pressure” value ([2]; 332.15 K) was 759.24 ± 25 J/K/mol, the “molar heat capacity at constant pressure” value ([2]; 333.15 K) was 759.85 ± 25 J/K/mol and the “molar heat capacity at constant pressure” value ([2]; 334.15 K) was 760.46 ± 25 J/K/mol. For the same molecule, the “molar heat capacity at constant pressure” value ([2]; 335.15 K) was 761.07 ± 25 J/K/mol, the “molar heat capacity at constant pressure” value ([2]; 336.15 K) was 762.3 ± 25 J/K/mol and the “molar heat capacity at constant pressure” value ([2]; 337.15 K) was 762.91 ± 25 J/K/mol. The “molar heat capacity at constant pressure” value ([2]; 338.15 K) was 763.52 ± 25 J/K/mol, the “molar heat capacity at constant pressure” value ([2]; 339.15 K) was 764.75 ± 25 J/K/mol and the “molar heat capacity at constant pressure” value ([2]; 340.15 K) was 765.36 ± 25 J/K/mol. For the same molecule, the “molar heat capacity at constant pressure” value ([2]; 341.15 K) was 765.97 ± 25 J/K/mol, the “molar heat capacity at constant pressure” value ([2]; 342.15 K) was 767.2 ± 25 J/K/mol and the “molar heat capacity at constant pressure” value ([2]; 343.15 K) was 767.81 ± 25 J/K/mol.
